# Experimental data taken from patent US10570140B2, “Selective inhibitors of protein arginine methyltransferase 5 (PRMT5)” (Prelude Therapeutics, Incorporated, priority 2017, dated 2020).
# Tested on: sDMA
# Experiment: Western blot for symmetric di-methyl arginine (sDMA) IC50 in Granta cells
# Format: cell-based
# Conditions: Homo sapiens, 72 h; Granta-519 cell line, 3 days
row,IC50 [nM],Compound
1,5.1,"Cc1ncnc2c1ccn2[C@@H]1O[C@H](COc2ccc3cc(Br)c(N)nc3c2)[C@@](C)(O)[C@H]1O [Example 55, (2R,3S,4R,5R)-2-(((2-amino-3-bromoquinolin-7-yl)oxy)methyl)-3-methyl-5-(4-methyl-7H-pyrrolo[2,3-d]pyrimidin-7-yl)tetrahydrofuran-3,4-diol]"
2,1,"C[C@@]1(O)[C@@H](COc2ccc3cc(Br)c(N)nc3c2)O[C@@H](n2ccc3c(N)ncnc32)[C@@H]1O [Example 12, (2R,3S,4R,5R)-2-(((2-amino-3-bromoquinolin-7-yl)oxy)methyl)-5-(4-amino-7H-pyrrolo[2,3-d]pyrimidin-7-yl)-3-methyltetrahydrofuran-3,4-diol]"

# Molecular target: PRMT5/MEP50 complex (Homo sapiens (Human), UniProt O14744)
# Experiment: PRMT5 biochemical assay (3H-SAM filter plate, histone H2A substrate)
# Conditions: not given
# Experimental: Biochemical Assay Protocol
# Compounds were solubilized and 3-fold diluted in 100% DMSO. […] Standard reactions were performed in a total volume of 50 μl in assay buffer, with histone H2A (5 μM final) as substrate. To this was added the PRMT5/MEP50 complex diluted to provide a final assay concentration of 5 nM and the compounds were allowed to preincubate for 15 to 20 minutes at room temperature. The reaction was initiated by adding S-[3H-methyl]-adenosyl-L-methionine (PerkinElmer) to final concentration of 1 μM. Following a 60 minutes incubation at 30° C., the reaction was stopped by adding 100 μL of 20% TCA. Each reaction was spotted onto filter plate (MultiScreen FB Filter Plate, Millipore), and washed 5 times with PBS buffer, Scintillation fluid was added to the filter plate and read in a scintillation counter. IC50 values were determined by fitting the data to the standard 4 parameters with Hill Slope using GraphPad Prism software.
# Sequence of PRMT5/MEP50 complex (O14744 whole entry): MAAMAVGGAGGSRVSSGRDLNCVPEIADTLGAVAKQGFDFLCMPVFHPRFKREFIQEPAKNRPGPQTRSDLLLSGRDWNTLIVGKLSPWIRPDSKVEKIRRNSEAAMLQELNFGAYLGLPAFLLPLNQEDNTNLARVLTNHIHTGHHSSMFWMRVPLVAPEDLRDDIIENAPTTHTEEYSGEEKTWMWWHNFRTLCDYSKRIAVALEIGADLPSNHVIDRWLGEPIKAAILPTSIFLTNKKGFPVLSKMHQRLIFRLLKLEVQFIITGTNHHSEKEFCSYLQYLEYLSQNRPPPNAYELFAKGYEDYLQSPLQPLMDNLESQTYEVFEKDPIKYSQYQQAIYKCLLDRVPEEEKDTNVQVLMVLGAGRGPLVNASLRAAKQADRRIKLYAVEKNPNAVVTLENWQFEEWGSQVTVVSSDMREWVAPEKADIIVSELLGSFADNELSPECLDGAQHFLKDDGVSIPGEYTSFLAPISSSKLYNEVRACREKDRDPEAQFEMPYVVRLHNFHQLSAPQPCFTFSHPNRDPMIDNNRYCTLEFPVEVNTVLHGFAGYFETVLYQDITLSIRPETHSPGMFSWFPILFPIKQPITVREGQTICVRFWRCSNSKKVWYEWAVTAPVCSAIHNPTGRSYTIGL
# Sequence of PRMT5/MEP50 complex (Q9BQA1 whole entry partner): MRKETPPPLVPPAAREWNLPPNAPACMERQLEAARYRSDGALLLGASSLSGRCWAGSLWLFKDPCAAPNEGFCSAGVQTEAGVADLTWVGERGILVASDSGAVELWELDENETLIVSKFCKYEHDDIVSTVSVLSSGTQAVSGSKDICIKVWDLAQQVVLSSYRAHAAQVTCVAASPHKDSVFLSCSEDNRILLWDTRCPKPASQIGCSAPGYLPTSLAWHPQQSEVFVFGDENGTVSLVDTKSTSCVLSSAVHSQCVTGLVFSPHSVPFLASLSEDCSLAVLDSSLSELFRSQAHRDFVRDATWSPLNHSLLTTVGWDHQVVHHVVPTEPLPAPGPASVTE
row,Compound,IC50 [nM]
1,"CO/N=c1\[nH]cnc2c1ccn2[C@@H]1O[C@H](COc2ccc3ccc(N)nc3c2)[C@@](C)(O)[C@H]1O [Example 32, 7-((2R,3R,4S,5R)-5-(((2-aminoquinolin-7-yl)oxy)methyl)-3,4-dihydroxy-4-methyltetrahydrofuran-2-yl)-3,7-dihydro-4H-pyrrolo[2,3-d]pyrimidin-4-one O-methyloxime]",10

# Same assay, conditions: PRMT5/MEP50 5 nM, histone H2A 5 μM, SAM 1 μM; read-out: PRMT5 IC50
row,Compound,IC50 [nM]
1,"CO/N=c1\[nH]cnc2c1ccn2[C@@H]1O[C@H](COc2ccc3ccc(NOC)nc3c2)[C@@](C)(O)[C@H]1O [Example 45, (Z)-7-((2R,3R,4S,5R)-3,4-dihydroxy-5-(((2-(methoxyamino)quinolin-7-yl)oxy)methyl)-4-methyltetrahydrofuran-2-yl)-3,7-dihydro-4H-pyrrolo[2,3-d]pyrimidin-4-one O-methyl oxime]",11500
2,"CO/N=c1\[nH]cnc2c1ccn2[C@@H]1O[C@H]([C@H](O)c2ccc(Cl)cc2)[C@@](C)(O)[C@H]1O [Example 44, (Z)-7-((2R,3R,4S,5R)-5-((R)-(4-chlorophenyl)(hydroxy)methyl)-3,4-dihydroxy-4-methyltetrahydrofuran-2-yl)-3,7-dihydro-4H-pyrrolo[2,3-d]pyrimidin-4-one O-methyl oxime]",3480
3,"C[C@@]1(O)[C@@H](COc2cccc(NC(N)=O)c2)O[C@@H](n2ccc3c(Cl)ncnc32)[C@@H]1O [Example 41, 1-(3-(((2R,3S,4R,5R)-5-(4-chloro-7H-pyrrolo[2,3-d]pyrimidin-7-yl)-3,4-dihydroxy-3-methyltetrahydrofuran-2-yl)methoxy)phenyl)urea]",200000
4,"CNc1ncnc2c1ccn2[C@@H]1O[C@H](CSC)[C@@](C)(O)[C@H]1O [Example 40, (2S,3S,4R,5R)-3-methyl-5-(4-(methylamino)-7H-pyrrolo[2,3-d]pyrimidin-7-yl)-2-((methylthio)methyl)tetrahydrofuran-3,4-diol]",14100
5,"C[C@@]1(O)[C@@H](COc2ccccc2)O[C@@H](n2ccc3c(N)ncnc32)[C@@H]1O [Example 20, (2R,3S,4R,5R)-5-(4-amino-7H-pyrrolo[2,3-d]pyrimidin-7-yl)-3-methyl-2-(phenoxymethyl)tetrahydrofuran-3,4-diol]",14300
6,"Cc1ncnc2c1ccn2[C@@H]1O[C@H](Cc2ccc(Cl)cc2CO)[C@@](C)(O)[C@H]1O [Example 64, (2R,3S,4R,5R)-2-(4-chloro-2-(hydroxymethyl)benzyl)-3-methyl-5-(4-methyl-7H-pyrrolo[2,3-d]pyrimidin-7-yl)tetrahydrofuran-3,4-diol]",1610
7,"C[C@@]1(O)[C@@H](COc2cccc(NC(N)=O)c2)O[C@@H](n2ccc3c(N)ncnc32)[C@@H]1O [Example 21, 1-(3-(((2R,3S,4R,5R)-5-(4-amino-7H-pyrrolo[2,3-d]pyrimidin-7-yl)-3,4-dihydroxy-3-methyltetrahydrofuran-2-yl)methoxy)phenyl)urea]",7840
8,"C[C@@]1(O)[C@@H](C(=O)Nc2cccc(CN)c2)O[C@@H](n2ccc3c(Cl)ncnc32)[C@@H]1O [Example 42, (2S,3S,4R,5R)-N-(3-(aminomethyl)phenyl)-5-(4-chloro-7H-pyrrolo[2,3-d]pyrimidin-7-yl)-3,4-dihydroxy-3-methyltetrahydrofuran-2-carboxamide]",9100
9,"COC[C@H]1O[C@@H](n2ccc3c(N)ncnc32)[C@H](O)[C@]1(C)O [Example 19, (2R,3S,4R,5R)-5-(4-amino-7H-pyrrolo[2,3-d]pyrimidin-7-yl)-2-(methoxymethyl)-3-methyltetrahydrofuran-3,4-diol]",1440
10,"C[C@@]1(O)[C@@H]([C@H](O)c2ccc(Cl)cc2)O[C@@H](n2ccc3/c(=N/O)[nH]cnc32)[C@@H]1O [Example 46, (Z)-7-((2R,3R,4S,5R)-5-((R)-(4-chlorophenyl)(hydroxy)methyl)-3,4-dihydroxy-4-methyltetrahydrofuran-2-yl)-3,7-dihydro-4H-pyrrolo[2,3-d]pyrimidin-4-one oxime]",92

# Further lines, results first:
row,IC50 [nM],Compound
1,0.8,"Cc1ncnc2c1ccn2[C@@H]1O[C@H](COc2ccc3cc(Br)c(N)nc3c2)[C@@](C)(O)[C@H]1O [Example 55, (2R,3S,4R,5R)-2-(((2-amino-3-bromoquinolin-7-yl)oxy)methyl)-3-methyl-5-(4-methyl-7H-pyrrolo[2,3-d]pyrimidin-7-yl)tetrahydrofuran-3,4-diol]"
2,1.1,"Cc1ncnc2c1ccn2[C@@H]1O[C@H](COc2ccc3ccc(N)nc3c2)[C@@](C)(O)[C@H]1O [Example 10, (2R,3S,4R,5R)-2-(((2-aminoquinolin-7-yl)oxy)methyl)-3-methyl-5-(4-methyl-7H-pyrrolo[2,3-d]pyrimidin-7-yl)tetrahydrofuran-3,4-diol]"
3,198,"Cc1ncnc2c1ccn2[C@@H]1O[C@H](COc2ccc3cccnc3c2)[C@@](C)(O)[C@H]1O [Example 54, (2R,3S,4R,5R)-3-methyl-5-(4-methyl-7H-pyrrolo[2,3-d]pyrimidin-7-yl)-2-((quinolin-7-yloxy)methyl)tetrahydrofuran-3,4-diol]"
4,0.5,"C[C@@]1(O)[C@@H](COc2ccc3cc(Br)c(N)nc3c2)O[C@@H](n2ccc3c(N)ncnc32)[C@@H]1O [Example 12, (2R,3S,4R,5R)-2-(((2-amino-3-bromoquinolin-7-yl)oxy)methyl)-5-(4-amino-7H-pyrrolo[2,3-d]pyrimidin-7-yl)-3-methyltetrahydrofuran-3,4-diol]"
5,16,"Cc1ncnc2c1ccn2[C@@H]1O[C@H]([C@H](O)c2ccc(F)c(C(F)(F)F)c2)[C@@](C)(O)[C@H]1O [Example 61, (2R,3S,4R,5R)-2-((R)-(4-fluoro-3-(trifluorometh-yl)phenyl)(hydroxy)methyl)-3-methyl-5-(4-methyl-7H-pyrrolo[2,3-d]pyrimidin-7-yl)tetrahydrofuran-3,4-diol]"
6,413,"C[C@@]1(O)[C@@H](Cc2ccc(Cl)cc2CO)O[C@@H](n2ccc3c(N)ncnc32)[C@@H]1O [Example 65, (2R,3S,4R,5R)-5-(4-amino-7H-pyrrolo[2,3-d]pyrimidin-7-yl)-2-(4-chloro-2-(hydroxymethyl)benzyl)-3-methyltetrahydrofuran-3,4-diol]"
7,404,"C[C@@]1(O)[C@@H](Cc2ccc(Cl)c(Cl)c2)O[C@@H](n2ccc3cncnc32)[C@@H]1O [Example 51, (2R,3S,4R,5R)-2-(3,4-dichlorobenzyl)-3-methyl-5-(7H-pyrrolo[2,3-d]pyrimidin-7-yl)tetrahydrofuran-3,4-diol]"
8,368,"Cc1ncnc2c1ccn2[C@@H]1O[C@H]([C@H](O)c2ccc(OC(F)(F)F)cc2)[C@@](C)(O)[C@H]1O [Example 60, (2R,3S,4R,5R)-2-((R)-hydroxy(4-(trifluoromethoxy)phenyl)methyl)-3-methyl-5-(4-methyl-7H-pyrrolo[2,3-d]pyrimidin-7-yl)tetrahydrofuran-3,4-diol]"
9,428,"CO/N=c1/nc[nH]c2c1ccn2[C@@H]1O[C@H]([C@H](O)c2ccc(Cl)c(Cl)c2)[C@@](C)(O)[C@H]1O [Example 37, 7-((2R,3R,4S,5R)-5-((R)-(3,4-dichlorophenyl)(hydroxy)methyl)-3,4-dihydroxy-4-methyltetrahydrofuran-2-yl)-1,7-dihydro-4H-pyrrolo[2,3-d]pyrimidin-4-one O-methyl oxime]"
10,5.8,"C[C@@]1(O)[C@@H](COc2ccc3cccnc3c2)O[C@@H](n2ccc3c(N)ncnc32)[C@@H]1O [Example 53, (2R,3S,4R,5R)-5-(4-amino-7H-pyrrolo[2,3-d]pyrimidin-7-yl)-3-methyl-2-((quinolin-7-yloxy)methyl)tetrahydrofuran-3,4-diol]"
11,399,"Cc1ncnc2c1ccn2[C@@H]1O[C@H]([C@H](O)c2ccc(C(C)C)cc2)[C@@](C)(O)[C@H]1O [Example 59, (2R,3S,4R,5R)-2-((R)-hydroxy(4-isopropylphenyl)methyl)-3-methyl-5-(4-methyl-7H-pyrrolo[2,3-d]pyrimidin-7-yl)tetrahydrofuran-3,4-diol]"
12,825,"C[C@@]1(O)[C@@H](C(=O)Nc2cccc(CN)c2)O[C@@H](n2ccc3c(N)ncnc32)[C@@H]1O [Example 43, (2S,3S,4R,5R)-5-(4-amino-7H-pyrrolo[2,3-d]pyrimidin-7-yl)-N-(3-(aminomethyl)phenyl)-3,4-dihydroxy-3-methyltetrahydrofuran-2-carboxamide]"
13,8.7,"C=C[C@@]1(O)[C@@H](COc2ccc3ccc(N)nc3c2)O[C@@H](n2ccc3c(N)ncnc32)[C@@H]1O [Example 4, (2R,3S,4R,5R)-5-(4-amino-7H-pyrrolo[2,3-d]pyrimidin-7-yl)-2-(((2-aminoquinolin-7-yl)oxy)methyl)-3-vinyltetrahydrofuran-3,4-diol]"
14,0.9,"Cc1cnc2cc(OC[C@H]3O[C@@H](n4ccc5c(N)ncnc54)[C@H](O)[C@]3(C)O)ccn12 [Example 68, (2R,3S,4R,5R)-5-(4-amino-7H-pyrrolo[2,3-d]pyrimidin-7-yl)-3-methyl-2-(((3-methylimidazo[1,2-a]pyridin-7-yl)oxy)methyl)tetrahydrofuran-3,4-diol]"
15,229,"C[C@@]1(O)[C@@H](Cc2ccc3c(c2)OCO3)O[C@@H](n2ccc3c(N)ncnc32)[C@@H]1O [Example 49, (2R,3S,4R,5R)-5-(4-amino-7H-pyrrolo[2,3-d]pyrimidin-7-yl)-2-(benzo[d][1,3]dioxol-5-ylmethyl)-3-methyltetrahydrofuran-3,4-diol]"
